How the values were obtained:
[1] = target: T1, Tec kinase (Homo sapiens, UniProt P42680); test: Tec Kinase Activity Assay; format: biochemical; conditions: 75 μM ATP, Pyk-2 substrate; compound concentration not given
T1 sequence (P42680 1-631): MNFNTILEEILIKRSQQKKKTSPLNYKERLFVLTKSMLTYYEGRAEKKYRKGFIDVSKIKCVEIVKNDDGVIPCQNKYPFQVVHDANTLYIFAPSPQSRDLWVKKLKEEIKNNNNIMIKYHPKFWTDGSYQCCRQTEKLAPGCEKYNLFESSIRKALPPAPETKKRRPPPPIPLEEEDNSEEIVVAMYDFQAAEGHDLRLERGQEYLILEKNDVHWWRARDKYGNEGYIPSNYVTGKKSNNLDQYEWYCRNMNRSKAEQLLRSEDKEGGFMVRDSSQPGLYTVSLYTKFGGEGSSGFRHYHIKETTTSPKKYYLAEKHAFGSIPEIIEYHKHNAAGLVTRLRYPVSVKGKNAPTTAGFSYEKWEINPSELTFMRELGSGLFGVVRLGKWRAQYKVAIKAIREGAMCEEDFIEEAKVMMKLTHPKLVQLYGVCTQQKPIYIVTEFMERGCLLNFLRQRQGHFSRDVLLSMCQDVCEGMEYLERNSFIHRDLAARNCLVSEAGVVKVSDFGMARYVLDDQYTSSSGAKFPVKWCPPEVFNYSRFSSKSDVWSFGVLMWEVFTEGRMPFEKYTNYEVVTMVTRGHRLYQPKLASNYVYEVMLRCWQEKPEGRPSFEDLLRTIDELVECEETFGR
Protocol: The disclosed compounds were assayed for their ability to inhibit the activity of Tec kinase. Nunc Maxisorb plates were coated with streptavidin by overnight incubation with 100 μl per well of 1 μg/ml Streptavidin in DPBS. Prior to the start of the experiment, the plates were washed with TBST (3×200 μl) and blocked for at least 1 hour by adding 150 μl of 5% BSA/TBST. The plates were then washed with TBST (3×200 μl/well) and left dry immediately before the capture step.
The disclosed test compounds and controls (Staurosporine and Sutent) were prepared using the following assay buffer (50 mM Tris-HCl, 0.02 mg/ml BSA, 10 mM MgCl2, 0.1 mM Na3VO4, 1 mM EGTA, 75 μM ATP, 0.01% NP-40, 2 mM DTT in 10% glycerol/water) at 3× desired final concentration. 20 μl of the test compounds (or control) and 20 μl TEC (0.25 ng/μl) were rapidly added to a reaction plate. The plate was incubated for 30 minutes. 20 μl of Pyk-2 (0.5 ng/μl) was then added to the reaction plate. The plate was incubated at room temperature for two hours.
50 μl was transferred from the reaction plate to the streptavidin coated plate. The capture plate was incubated at room temperature for 30 minutes then washed with TBST 6 times. 100 μl/well of Cell Signaling anti-phospho tyrosine was added to the capture plate at a dilution of 1:3000 in 2% BSA/TBST. The plate was incubated for one hour at room temperature then washed with TBST 6 times. 100 μl/well of alkaline phosphatase tagged goat anti-mouse antibody was added to the capture plate at a dilution of 1:4000 in 2% BSA/TBST. The plate was incubated for one hour at room temperature then washed with TBST 6 times.
The fluorescent readout was initiated by the addition of 100 μl/well of Attophos reagent (6 mg/10 ml) and the reading was done on the Perkin Elmer Envision system.

[2] = system: PC-3; test: MTS Assay (cell growth inhibition), PC-3; format: cell-based; conditions: PC-3 cells, 72 hours with test compound; concentration not given
Protocol: (§1) Cells were maintained at 37° C., 5% CO2 in DMEM media supplemented with 1% fetal bovine serum, penicillin/streptomycin and fungizone (Invitrogen). Cells were seeded into 96-well tissue culture plates at 3000 per well and cultured at 37° C. for 18 hours. Test compounds were dissolved and diluted to 300× in DMSO then diluted 1:40 in DMEM. Cells were incubated with test compounds for 72 hours followed by incubation with tetrazolium compound (3-(4,5-dimethylthiazol-2-yl)-5-(3-carboxymethoxyphenyl)-2-(4-sulfophenyl)-2H-tetrazolium, inner salt; MTS) and the electron coupling reagent, phenazine methosulfate (PMS) for 4 hours. […] The ability of compounds to inhibit cell growth in this assay is correlated with the reduction of dehydrogenase enzyme activity found in metabolically active cells. The measurement of the absorbance of the formazan was assessed using an ENVISION™ (Perkin Elmer) microplate reader at 492 nm. The calculated IC50 value is the concentration of the test compound that causes a 50% decrease in the absorbance.

[3] = system: NCI-H1299; test: MTS Assay (cell growth inhibition), NCI-H1299; format: cell-based; conditions: NCI-H1299 cells, 72 hours with test compound; concentration not given
Protocol: as §1

[4] = system: Kato III; test: MTS Assay (cell growth inhibition), Kato III; format: cell-based; conditions: Kato III cells, 72 hours with test compound; concentration not given
Protocol: as §1

[5] = system: PACA-2; test: MTS Assay (cell growth inhibition), PACA-2; format: cell-based; conditions: PACA-2 cells, 72 hours with test compound; concentration not given
Protocol: as §1

[6] = system: DLD-1; test: MTS Assay (cell growth inhibition), DLD-1; format: cell-based; conditions: DLD-1 cells, 72 hours with test compound; concentration not given
Protocol: as §1

[7] = system: MDA-MB 231; test: MTS Assay (cell growth inhibition), MDA-MB 231; format: cell-based; conditions: MDA-MB 231 cells, 72 hours with test compound; concentration not given
Protocol: as §1

| SMILES | Biochemical IC50 (% inhibition) Tec [1] | MTS cell kill data (% inhibition) PC-3 [2] | MTS cell kill data (% inhibition) NCI-H1299 [3] | MTS cell kill data (% inhibition) Kato III [4] | MTS cell kill data (% inhibition) PACA-2 [5] | MTS cell kill data (% inhibition) DLD-1 [6] | MTS cell kill data (% inhibition) MDA-MB 231 [7] |
| --- | --- | --- | --- | --- | --- | --- | --- |
| Cc1cccc(C2c3[nH]c4ccccc4c3CCN2c2ncnc3[nH]cnc23)c1 (stereo not drawn) [Compound 11, 1-(3-methylphenyl)-2-(9H-purin-6-yl)-2,3,4,9-tetrahydro-1H-beta-carboline] | C (C = <50% inhibition) | C (C = <50% inhibition) | A (A = 80-100% inhibition) | A (A = 80-100% inhibition) | B (B = 50-79% inhibition) | A (A = 80-100% inhibition) | B (B = 50-79% inhibition) |
| Cc1cccc(C2c3[nH]c4ccccc4c3CCN2c2ncnc3[nH]ncc23)c1 (stereo not drawn) [Compound 12, 1-(3-methylphenyl)-2-(1H-pyrazolo[3,4-d]pyrimidin-4-yl)-2,3,4,9-tetrahydro-1H-beta-carboline] | B (B = 50-79% inhibition) | C (C = <50% inhibition) | B (B = 50-79% inhibition) | A (A = 80-100% inhibition) | C (C = <50% inhibition) | B (B = 50-79% inhibition) | B (B = 50-79% inhibition) |
| Clc1ccccc1C1c2[nH]c3ccccc3c2CCN1c1ncnc2[nH]cnc12 (stereo not drawn) [Compound 13, 1-(2-chlorophenyl)-2-(9H-purin-6-yl)-2,3,4,9-tetrahydro-1H-beta-carboline] | B (B = 50-79% inhibition) | C (C = <50% inhibition) | B (B = 50-79% inhibition) | C (C = <50% inhibition) | C (C = <50% inhibition) | C (C = <50% inhibition) | C (C = <50% inhibition) |
| c1ccc(CC2c3[nH]c4ccccc4c3CCN2c2ncnc3[nH]ccc23)cc1 (stereo not drawn) [Compound 14, 1-benzyl-2-(7H-pyrrolo[2,3-d]pyrimidin-4-yl)-2,3,4,9-tetrahydro-1H-beta-carboline] | C (C = <50% inhibition) | A (A = 80-100% inhibition) | A (A = 80-100% inhibition) | A (A = 80-100% inhibition) | B (B = 50-79% inhibition) | B (B = 50-79% inhibition) | A (A = 80-100% inhibition) |
| c1ccc(CC2c3[nH]c4ccccc4c3CCN2c2ncnc3[nH]cnc23)cc1 (stereo not drawn) [Compound 15, 1-benzyl-2-(9H-purin-6-yl)-2,3,4,9-tetrahydro-1H-beta-carboline] | C (C = <50% inhibition) | A (A = 80-100% inhibition) | A (A = 80-100% inhibition) | B (B = 50-79% inhibition) | C (C = <50% inhibition) | B (B = 50-79% inhibition) | A (A = 80-100% inhibition) |
| Nc1nc(N2CCc3c([nH]c4ccccc34)C2Cc2ccccc2)c2nc[nH]c2n1 (stereo not drawn) [Compound 16, 6-(1-benzyl-1,3,4,9-tetrahydro-2H-beta-carbolin-2-yl)-9H-purin-2-amine] | C (C = <50% inhibition) | C (C = <50% inhibition) | C (C = <50% inhibition) | C (C = <50% inhibition) | C (C = <50% inhibition) | C (C = <50% inhibition) | C (C = <50% inhibition) |
| c1ccc(CC2c3[nH]c4ccccc4c3CCN2c2ncnc3[nH]ncc23)cc1 (stereo not drawn) [Compound 17, 1-benzyl-2-(1H-pyrazolo[3,4-d]pyrimidin-4-yl)-2,3,4,9-tetrahydro-1H-beta-carboline] | C (C = <50% inhibition) | C (C = <50% inhibition) | B (B = 50-79% inhibition) | B (B = 50-79% inhibition) | B (B = 50-79% inhibition) | B (B = 50-79% inhibition) | C (C = <50% inhibition) |
| CC(C)c1ccc(C2c3[nH]c4ccccc4c3CCN2c2ncnc3[nH]ccc23)cc1 (stereo not drawn) [Compound 18, 1-(4-isopropylphenyl)-2-(7H-pyrrolo[2,3-d]pyrimidin-4-yl)-2,3,4,9-tetrahydro-1H-beta-carboline] | C (C = <50% inhibition) | C (C = <50% inhibition) | A (A = 80-100% inhibition) | A (A = 80-100% inhibition) | A (A = 80-100% inhibition) | A (A = 80-100% inhibition) | A (A = 80-100% inhibition) |
| CC(C)c1ccc(C2c3[nH]c4ccccc4c3CCN2c2ncnc3[nH]cnc23)cc1 (stereo not drawn) [Compound 19, 1-(4-isopropylphenyl)-2-(9H-purin-6-yl)-2,3,4,9-tetrahydro-1H-beta-carboline] | C (C = <50% inhibition) | C (C = <50% inhibition) | C (C = <50% inhibition) | C (C = <50% inhibition) | C (C = <50% inhibition) | C (C = <50% inhibition) | C (C = <50% inhibition) |
| CC(C)c1ccc(C2c3[nH]c4ccccc4c3CCN2c2nc(N)nc3[nH]cnc23)cc1 (stereo not drawn) [Compound 20, 6-[1-(4-isopropylphenyl)-1,3,4,9-tetrahydro-2H-beta-carbolin-2-yl]-9H-purin-2-amine] | C (C = <50% inhibition) | C (C = <50% inhibition) | A (A = 80-100% inhibition) | A (A = 80-100% inhibition) | B (B = 50-79% inhibition) | A (A = 80-100% inhibition) | B (B = 50-79% inhibition) |
